{
  "source": "patent US5994369A",
  "about": "“Substituted piperidine or pyrrolidine compounds for treating sigma-receptor modulated disorders” (Byk Gulden Lomberg Chemische Fabrik GmbH, priority 1995, dated 1999)",
  "key": {"[1]": {"target": "NMDA receptors", "assay": "NMDA receptor affinity (MK 801 binding)", "method": "The affinity and selectivity of the compounds described above in greater detail for sigma receptors in comparison with NMDA receptors were determined following published methods (Kornhuber et al.: Eur. J. Pharmacol. 162, 483-490, 1989 and Neurosci. Lett. 163, 129-131, 1993)."}, "[2]": {"target": "Sigma receptors (Homo sapiens, UniProt Q99720)", "sequence (Q99720 whole entry)": "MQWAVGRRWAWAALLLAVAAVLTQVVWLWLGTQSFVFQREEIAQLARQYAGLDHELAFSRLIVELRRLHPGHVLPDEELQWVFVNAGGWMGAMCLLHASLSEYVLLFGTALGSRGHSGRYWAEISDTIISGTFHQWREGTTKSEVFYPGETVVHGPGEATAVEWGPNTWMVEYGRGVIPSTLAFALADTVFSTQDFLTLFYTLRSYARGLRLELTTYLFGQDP", "assay": "Sigma receptor affinity (pentazocine binding)"}},
  "data": [
    {"smiles": "NC12CC3CC(CC(C3)C1)C2", "note": "[Amantadine]", "values": [
      {"measurement": "Ki", "setting": "[1]", "value": 10.5, "unit": "µM"}
    ]},
    {"smiles": "CC(C)(C)N1CCC(c2ccccc2)(c2ccccc2)CC1", "note": "[Budipine, budipine]", "values": [
      {"measurement": "Ki", "setting": "[1]", "value": 11.7, "unit": "µM"},
      {"measurement": "Ki", "setting": "[2]", "value": 2, "unit": "µM"}
    ]},
    {"smiles": "CC12CC3CC(C)(C1)CC(N)(C3)C2", "note": "[Memantine]", "values": [
      {"measurement": "Ki", "setting": "[1]", "value": 0.5, "unit": "µM"},
      {"measurement": "Ki", "setting": "[2]", "value": 20, "unit": "µM"}
    ]}
  ]
}
